# Experimental data: patent US8093231B2, “Sulfonylethyl phosphorodiamidates” (Telik, Inc., priority 2004, dated 2012)
# Read-outs that look alike come from different tables or passages of the source.
# How the values were obtained:
# Type in all cases: cell-based, human
# MX-1 (breast carcinoma) = experiment: Cytotoxicity/growth inhibition assay, MX-1; conditions: read-out: IC50 (MX-1)
# From the text: (§1) The human cancer cell lines DLD-1 (colorectal adenocarcinoma), LNCap (prostate carcinoma), and OVCAR-3 (ovarian carcinoma) were obtained from the American Type Culture Collection, Manassas, Va., U.S.A., and HL-60 (promyeloid myelocytic leukemia), MX-1 (breast carcinoma), P388, and P388ADR from the National Cancer Institute, Bethesda, Md., U.S.A. Carboplatin, doxorubicin, and melphalan were obtained from Sigma-Aldrich Chemical Company, St. Louis, Mo., U.S.A. The CellTiter-Glo assay kit was obtained from Promega Corporation, Madison, Wis., U.S.A., and the Cellular DNA Cytometric Analysis Reagent Kit from Roche Diagnostics Corporation, Indianapolis, Ind., U.S.A. Lambda DNA was obtained from New England Biolabs, Beverly, Mass., U.S.A., and SYBR-Gold from Molecular Probes, Inc., Eugene, Oreg., U.S.A. The DNeasy Tissue Kit was obtained from Qiagen Inc., Valencia, Calif., U.S.A., and AmpliTaq Gold DNA polymerase and PCR reagents from Applied Biosystems, Foster City, Calif., U.S.A. All products were used in accordance with manufacturer's directions. All assays were conducted in triplicate wells, with dimethyl sulfoxide (DMSO) solvent control. The extent of cell growth was expressed as a percentage of the signal from the solvent control wells.
# (§2) Log-phase cells were trypsinized, collected by centrifugation, and resuspended in a small volume of fresh medium, and the density of viable cells was determined following Trypan Blue staining. Cells were diluted in fresh media (3×10^3 cells/mL for MX-1, 3×10^3 cells/mL for DLD-1, and 6×10^3 cells/mL for LNCap cells), the test compounds (concentrations between 0.1 and 200 μM, dissolved in DMSO, 50 μL) added immediately after dilution to achieve a final DMSO concentration of 0.5%, then the suspensions added at 150 μL/well to 96-well plates, and incubated for several hours to allow attachment in the case of adherent cells. The cells were cultured for approximately three doubling times (3 days for MX-1 and 4 days for DLD-1 and LNCap). The cells were then collected by centrifugation, and 100 μL of the culture supernatant was replaced by the CellTiter-Glo reagent. After incubation for 15 minutes at room temperature, and the plate was read with a luminometer.
# [1] = tested on: DLD-1 (colorectal adenocarcinoma); experiment: Cytotoxicity/growth inhibition assay, DLD-1; conditions: read-out: IC50 (DLD-1)
# From the text: as §1, §2
# [2] = tested on: LNCap (prostate carcinoma); experiment: Cytotoxicity/growth inhibition assay, LNCap; conditions: read-out: IC50 (LNCap)
# From the text: as §1, §2
# [3] = MX-1 cells, 3 days culture, CellTiter-Glo, 0.1-200 μM tested
# [4] = DLD-1 cells, 4 days culture, CellTiter-Glo, 0.1-200 μM tested
# [5] = LNCap cells, 4 days culture, CellTiter-Glo, 0.1-200 μM tested
SMILES,IC50 (MX-1 (breast carcinoma); [3]),"IC50 [1, 4]","IC50 [2, 5]","IC50 (MX-1 (breast carcinoma); Homo sapiens, MX1, 72 h)","IC50 ([1]; Homo sapiens, DLD-1, 96 h)","IC50 ([2]; Homo sapiens, LNCaP, 96 h)"
CCS(=O)(=O)CCOP(=O)(N(CCCl)CCCl)N(CCCl)CCCl [Compound 1A],16.9 µM,9.1 µM,57.1 µM,,,
O=P(OCCS(=O)(=O)CCS(=O)(=O)CCOP(=O)(N(CCCl)CCCl)N(CCCl)CCCl)(N(CCCl)CCCl)N(CCCl)CCCl [Compound 1B],4 µM,2.5 µM,5.1 µM,,,
"O=P(OCCS(=O)(=O)CCOP(=O)(N(CCCl)CCCl)N(CCCl)CCCl)(N(CCCl)CCCl)N(CCCl)CCCl [Compound 1C, di[2-[[bis[bis(2-chloroethyl)amino]phosphinyl]oxy]ethyl]sulfone]",,,,0.3 µM,0.3 µM,1.4 µM
C=CS(=O)(=O)CCOP(=O)(N(CCCl)CCCl)N(CCCl)CCCl [Compound 2A],3.2 µM,1.4 µM,105 µM,,,
CC(C(C)S(=O)(=O)CCOP(=O)(N(CCCl)CCCl)N(CCCl)CCCl)S(=O)(=O)CCOP(=O)(N(CCCl)CCCl)N(CCCl)CCCl (stereo not drawn) [Compound 2B],≥ 200 µM,0.3 µM,10.9 µM,,,
CCCS(=O)(=O)CCOP(=O)(N(CCCl)CCCl)N(CCCl)CCCl [Compound 3A],11.4 µM,9.2 µM,67.6 µM,,,
O=P(OCCS(=O)(=O)CCCS(=O)(=O)CCOP(=O)(N(CCCl)CCCl)N(CCCl)CCCl)(N(CCCl)CCCl)N(CCCl)CCCl [Compound 3B],7.4 µM,4.3 µM,14.8 µM,,,
CC(C)S(=O)(=O)CCOP(=O)(N(CCCl)CCCl)N(CCCl)CCCl [Compound 4A],24 µM,12.7 µM,67.8 µM,,,
O=P(OCCS(=O)(=O)CCCCS(=O)(=O)CCOP(=O)(N(CCCl)CCCl)N(CCCl)CCCl)(N(CCCl)CCCl)N(CCCl)CCCl [Compound 4B],4.1 µM,2.9 µM,11.5 µM,,,
CC(C)CS(=O)(=O)CCOP(=O)(N(CCCl)CCCl)N(CCCl)CCCl [Compound 6A],4.6 µM,6.8 µM,17.7 µM,,,
CC(C)(C)S(=O)(=O)CCOP(=O)(N(CCCl)CCCl)N(CCCl)CCCl [Compound 7A],20.6 µM,21.8 µM,165 µM,,,
O=P(OCCS(=O)(=O)CCCCCCCCS(=O)(=O)CCOP(=O)(N(CCCl)CCCl)N(CCCl)CCCl)(N(CCCl)CCCl)N(CCCl)CCCl [Compound 7B],1.9 µM,1.5 µM,9.5 µM,,,
CCC(C)CS(=O)(=O)CCOP(=O)(N(CCCl)CCCl)N(CCCl)CCCl (stereo not drawn) [Compound 8A],17.5 µM,7 µM,40.9 µM,,,
O=P(OCCS(=O)(=O)CCOCCS(=O)(=O)CCOP(=O)(N(CCCl)CCCl)N(CCCl)CCCl)(N(CCCl)CCCl)N(CCCl)CCCl [Compound 8B],10.9 µM,6.5 µM,28 µM,,,
CC(C)CCS(=O)(=O)CCOP(=O)(N(CCCl)CCCl)N(CCCl)CCCl [Compound 9A],5.8 µM,5.9 µM,17.3 µM,,,
O=P(OCCS(=O)(=O)CCOCCOCCS(=O)(=O)CCOP(=O)(N(CCCl)CCCl)N(CCCl)CCCl)(N(CCCl)CCCl)N(CCCl)CCCl [Compound 9B],6 µM,6.1 µM,25.5 µM,,,
O=C(O)CCNC(=O)CS(=O)(=O)CCOP(=O)(N(CCCl)CCCl)N(CCCl)CCCl [Compound 39A],30.8 µM,13.3 µM,,,,
O=C(O)CNC(=O)CS(=O)(=O)CCOP(=O)(N(CCCl)CCCl)N(CCCl)CCCl [Compound 40A],32 µM,13 µM,,,,
CC(C)(C)OC(=O)CC(NC(=O)CS(=O)(=O)CCOP(=O)(N(CCCl)CCCl)N(CCCl)CCCl)C(N)=O (stereo not drawn) [Compound 41A],29.3 µM,10.8 µM,,,,
CC(C)(C)OC(=O)[C@@H]1CCCN1C(=O)CS(=O)(=O)CCOP(=O)(N(CCCl)CCCl)N(CCCl)CCCl [Compound 42A],7.6 µM,4.7 µM,,,,
CC(NC(=O)CS(=O)(=O)CCOP(=O)(N(CCCl)CCCl)N(CCCl)CCCl)C(=O)OC(C)(C)C (stereo not drawn) [Compound 44A],34.8 µM,11.1 µM,,,,
CC(C)(C)OC(=O)CN1CCN(C(=O)CS(=O)(=O)CCOP(=O)(N(CCCl)CCCl)N(CCCl)CCCl)CC1 [Compound 47A],15.9 µM,9.3 µM,,,,
COCCNC(=O)CS(=O)(=O)CCOP(=O)(N(CCCl)CCCl)N(CCCl)CCCl [Compound 48A],4.4 µM,15.5 µM,,,,

SMILES,IC50 (MX-1 (breast carcinoma); [3]),"IC50 [1, 4]","IC50 [2, 5]","IC50 (MX-1 (breast carcinoma); Homo sapiens, MX1, 72 h)","IC50 ([1]; Homo sapiens, DLD-1, 96 h)","IC50 ([2]; Homo sapiens, LNCaP, 96 h)"
O=C(CS(=O)(=O)CCOP(=O)(N(CCCl)CCCl)N(CCCl)CCCl)NCCO [Compound 49A],29 µM,11.6 µM,,,,
CCNC(=O)CS(=O)(=O)CCOP(=O)(N(CCCl)CCCl)N(CCCl)CCCl [Compound 50A],17.1 µM,11.9 µM,,,,
O=C(CS(=O)(=O)CCOP(=O)(N(CCCl)CCCl)N(CCCl)CCCl)N1CCOCC1 [Compound 51A],6.9 µM,6.7 µM,,,,
O=C(CS(=O)(=O)CCOP(=O)(N(CCCl)CCCl)N(CCCl)CCCl)N1CCC(O)CC1 [Compound 52A],15.6 µM,10.2 µM,,,,
CNC(=O)CCS(=O)(=O)CCOP(=O)(N(CCCl)CCCl)N(CCCl)CCCl [Compound 53A],11.3 µM,8.4 µM,,,,
CCNC(=O)CCS(=O)(=O)CCOP(=O)(N(CCCl)CCCl)N(CCCl)CCCl [Compound 54A],9.3 µM,7.4 µM,,,,
O=C(CCS(=O)(=O)CCOP(=O)(N(CCCl)CCCl)N(CCCl)CCCl)NC1CC1 [Compound 55A],14.7 µM,10.1 µM,,,,
O=C(CCS(=O)(=O)CCOP(=O)(N(CCCl)CCCl)N(CCCl)CCCl)NCCO [Compound 56A],19.3 µM,8.2 µM,,,,
COCCNC(=O)CCS(=O)(=O)CCOP(=O)(N(CCCl)CCCl)N(CCCl)CCCl [Compound 57A],18 µM,10.1 µM,,,,
O=C(CCS(=O)(=O)CCOP(=O)(N(CCCl)CCCl)N(CCCl)CCCl)N1CCOCC1 [Compound 58A],17 µM,12.9 µM,,,,
O=C(CCS(=O)(=O)CCOP(=O)(N(CCCl)CCCl)N(CCCl)CCCl)N1CCC(O)CC1 [Compound 59A],25.4 µM,15.1 µM,,,,
O=C(CS(=O)(=O)CCOP(=O)(N(CCCl)CCCl)N(CCCl)CCCl)NC1CC1 [Compound 60A],11.3 µM,7.4 µM,,,,
NC(=O)C(CC(=O)O)NC(=O)CS(=O)(=O)CCOP(=O)(N(CCCl)CCCl)N(CCCl)CCCl (stereo not drawn) [Compound 61A],30.9 µM,20 µM,,,,
O=C(O)[C@@H]1CCCN1C(=O)CS(=O)(=O)CCOP(=O)(N(CCCl)CCCl)N(CCCl)CCCl [Compound 62A],15 µM,16.5 µM,,,,
CC(C)C(NC(=O)CS(=O)(=O)CCOP(=O)(N(CCCl)CCCl)N(CCCl)CCCl)C(=O)O (stereo not drawn) [Compound 63A],10 µM,17.2 µM,,,,
CC(NC(=O)CS(=O)(=O)CCOP(=O)(N(CCCl)CCCl)N(CCCl)CCCl)C(=O)O (stereo not drawn) [Compound 64A],37.3 µM,22 µM,,,,
NC(=O)CC(NC(=O)CS(=O)(=O)CCOP(=O)(N(CCCl)CCCl)N(CCCl)CCCl)C(=O)O (stereo not drawn) [Compound 65A],31.8 µM,21.4 µM,,,,
CS(=O)(=O)CCC(NC(=O)CS(=O)(=O)CCOP(=O)(N(CCCl)CCCl)N(CCCl)CCCl)C(=O)O (stereo not drawn) [Compound 66A],29.1 µM,18.8 µM,,,,
O=C(CS(=O)(=O)CCOP(=O)(N(CCCl)CCCl)N(CCCl)CCCl)N1CCNCC1 [Compound 68A],36.7 µM,18 µM,,,,
O=C(CS(=O)(=O)CCOP(=O)(N(CCCl)CCCl)N(CCCl)CCCl)N1CCN(CCO)CC1 [Compound 69A],34.6 µM,14.1 µM,,,,
"COC(=O)[C@H](CS(=O)(=O)CCOP(=O)(N(CCCl)CCCl)N(CCCl)CCCl)NS(C)(=O)=O [Compound 79A, N-(Methanesulfonyl)-3-[[2-[[bis[bis(2-chloroethyl)amino]phosphinyl]oxy]ethyl]sulfonyl]-L-alanine methyl ester]",,,,88 µM,26.6 µM,
O=C(Nc1cccc(CS(=O)(=O)CCOP(=O)(N(CCCl)CCCl)N(CCCl)CCCl)c1)C1CCCNC1 (stereo not drawn) [Compound 148A],≥ 200 µM,≥ 200 µM,,,,
CN(C)CCNC(=O)c1ccc(CS(=O)(=O)CCOP(=O)(N(CCCl)CCCl)N(CCCl)CCCl)cc1 [Compound 173A],104 µM,37.9 µM,,,,
